This note sets out measurements from ChEMBL document CHEMBL3044724, “Differential efficacy of three commonly used pyrethroids against laboratory and field-collected larvae and adults of Helicoverpa zea (Lepidoptera: Noctuidae) and significance for pyrethroid resistance management” (2010).

Common to all, as to type: functional
Experiment [1] has as its system Helicoverpa zea. Kind of experiment: Resistant ratio, ratio of LC50 for F1 generation of adult of Helicoverpa zea (corn earworm) to LC50 for adult of corn earworm.
Experiment [2] deals with Helicoverpa zea. Kind of experiment: Insecticidal activity against third-instar of Helicoverpa zea (corn earworm) assessed as mortality per insecticide vial after 48 hr.
Experiment [3] deals with Helicoverpa zea. Kind of experiment: Insecticidal activity against F1 generation of third-instar of Helicoverpa zea (corn earworm) assessed as mortality per insecticide vial after 48 hr.
Experiment [4] deals with Helicoverpa zea. Briefly: Resistant ratio, ratio of LC90 for F1 generation of adult of Helicoverpa zea (corn earworm) to LC90 for adult of corn earworm.
The test system of experiment [5] is Helicoverpa zea. Briefly: Insecticidal activity against adult of Helicoverpa zea (corn earworm) assessed as mortality per insecticide vial after 24 hr.
For experiment [6], the system named is Helicoverpa zea. Briefly: Resistant ratio, ratio of LC90 for F1 generation of third-instar of Helicoverpa zea (corn earworm) to LC90 for third-instar of corn earworm.
In experiment [7] the test system is Helicoverpa zea. Kind of experiment: Resistant ratio, ratio of LC50 for F1 generation of third-instar of Helicoverpa zea (corn earworm) to LC50 for third-instar of corn earworm.
Experiment [8] has as its system Helicoverpa zea. Kind of experiment: Insecticidal activity against F1 generation of adult of Helicoverpa zea (corn earworm) assessed as mortality per insecticide vial after 24 hr.

For the molecule `CC(C)[C@H](C(=O)O[C@H](C#N)c1cccc(Oc2ccccc2)c1)c1ccc(Cl)cc1`, the RatioLC50 turned out to be 4.67 with Helicoverpa zea [1] and 3.75 with Helicoverpa zea [7]. Further, the LC50 was determined as 0.4 µg with Helicoverpa zea [2], 1.51 µg in the experiment with Helicoverpa zea [3], 0.49 µg with Helicoverpa zea [5] and 2.3 µg in the experiment on Helicoverpa zea [8]. Besides, the LC90 worked out at 1.45 µg in the experiment on Helicoverpa zea [2], 4.59 µg with Helicoverpa zea [3], 1.35 µg in the experiment on Helicoverpa zea [5] and 5.9 µg in the experiment on Helicoverpa zea [8]. The Ratio with Helicoverpa zea [4] was 4.37; in the experiment with Helicoverpa zea [6], 3.17.
For the molecule `CC1(C)C(C=C(Cl)Cl)C1C(=O)OC(C#N)c1cccc(Oc2ccccc2)c1` (stereo not drawn) [ALPHA-CYPERMETHRIN], the results for the RatioLC50 with Helicoverpa zea [1] and in the experiment with Helicoverpa zea [7] were 4.16 and 4.68, respectively. In addition, the LC50 was found to be 0.37 µg in the experiment with Helicoverpa zea [2], 1.71 µg with Helicoverpa zea [3], 0.7 µg with Helicoverpa zea [5] and 2.89 µg in the experiment with Helicoverpa zea [8]. The LC90 was determined as 1.22 µg with Helicoverpa zea [2], 7.68 µg in the experiment with Helicoverpa zea [3], 1.86 µg in the experiment with Helicoverpa zea [5] and 7.12 µg in the experiment on Helicoverpa zea [8]. In addition, the Ratio in the experiment with Helicoverpa zea [4] was found to be 3.82; in the experiment with Helicoverpa zea [6], 6.28.
Take `Cc1c(COC(=O)[C@@H]2[C@H](/C=C(\Cl)C(F)(F)F)C2(C)C)cccc1-c1ccccc1` [BIFENTHRIN]: the RatioLC50 in the experiment with Helicoverpa zea [1] amounted to 9.28; in the experiment on Helicoverpa zea [7], 9.41. The LC50 was determined as 0.13 µg in the experiment with Helicoverpa zea [2], 1.25 µg with Helicoverpa zea [3], 0.17 µg in the experiment on Helicoverpa zea [5] and 1.54 µg in the experiment with Helicoverpa zea [8]. The LC90 with Helicoverpa zea [2] is 0.38 µg; with Helicoverpa zea [3], 5.8 µg; in the experiment with Helicoverpa zea [5] it was 0.51 µg; in the experiment on Helicoverpa zea [8], 3.01 µg. Besides, the Ratio is recorded as 5.9 with Helicoverpa zea [4] and 15.22 in the experiment with Helicoverpa zea [6].
